In ChEMBL document CHEMBL3588782, “Synthesis, antiribosomal and antibacterial activity of 4-O-glycopyranosyl paromomycin aminoglycoside antibiotics” (Medchemcomm, 2014):
≈ marks a conversion by molar mass, not a printed value.

Assays:
[1] = Inhibition of Mycobacterium smegmatis ribosome containing ribosomal RNA A-site A1408G mutant in rabbit reticulocyte lysates assessed as reduction in ribosome-mediated protein synthesis in presence of S-30 extracts by fire fly luciferase synthesis based cell-free translation assay; parameters: species or system Mycolicibacterium smegmatis
Staphylococcus aureus [2] = assay: Antibacterial activity against methicillin-resistant Staphylococcus aureus isolate AG 038 by broth microdilution assay; assay type: functional
[3] = Inhibition of Mycobacterium smegmatis ribosome containing ribosomal RNA A-site G1491C mutant in rabbit reticulocyte lysates assessed as reduction in ribosome-mediated protein synthesis in presence of S-30 extracts by fire fly luciferase synthesis based cell-free translation assay; parameters: species or system Mycolicibacterium smegmatis
[4] = Inhibition of human ribosome containing eukaryotic ribosomal RNA A-site Cyt14 allele in rabbit reticulocyte lysates assessed as reduction in ribosome-mediated protein synthesis in presence of S-30 extracts by fire fly luciferase synthesis based cell-free translation assay
Escherichia coli [5] = assay: Antibacterial activity against Escherichia coli isolate 006 by broth microdilution assay; assay type: functional
80S Ribosome = assay: Inhibition of human ribosome containing eukaryotic wild type ribosomal RNA A-site in rabbit reticulocyte lysates assessed as reduction in ribosome-mediated protein synthesis in presence of S-30 extracts by fire fly luciferase synthesis based cell-free translation assay
[6] = Inhibition of human ribosome containing eukaryotic ribosomal RNA A-site A1555G mutant in rabbit reticulocyte lysates assessed as reduction in ribosome-mediated protein synthesis in presence of S-30 extracts by fire fly luciferase synthesis based cell-free translation assay
Bacterial 70S ribosome = assay: Inhibition of Mycobacterium smegmatis ribosome containing wild type ribosomal RNA A-site in rabbit reticulocyte lysates assessed as reduction in ribosome-mediated protein synthesis in presence of S-30 extracts by fire fly luciferase synthesis based cell-free translation assay; parameters: species or system Mycolicibacterium smegmatis
[7] = Inhibition of Mycobacterium smegmatis ribosome containing ribosomal RNA A-site G1491A mutant in rabbit reticulocyte lysates assessed as reduction in ribosome-mediated protein synthesis in presence of S-30 extracts by fire fly luciferase synthesis based cell-free translation assay; parameters: species or system Mycolicibacterium smegmatis
Staphylococcus aureus [8] = assay: Antibacterial activity against methicillin-resistant Staphylococcus aureus isolate AG 039 by broth microdilution assay; assay type: functional
Ribosome = assay: Inhibition of ribosome-mediated protein synthesis in rabbit reticulocyte lysates in presence of S-30 extracts by fire fly luciferase synthesis based cell-free translation assay; parameters: species or system Oryctolagus cuniculus
Escherichia coli [9] = assay: Antibacterial activity against Escherichia coli isolate 001 by broth microdilution assay; assay type: functional
Staphylococcus aureus [10] = assay: Antibacterial activity against methicillin-resistant Staphylococcus aureus isolate AG 044 by broth microdilution assay; assay type: functional
Escherichia coli [11] = assay: Antibacterial activity against Escherichia coli isolate 055 by broth microdilution assay; assay type: functional
Staphylococcus aureus [12] = assay: Antibacterial activity against methicillin-resistant Staphylococcus aureus isolate AG 042 by broth microdilution assay; assay type: functional
Escherichia coli [13] = assay: Antibacterial activity against Escherichia coli isolate 003 by broth microdilution assay; assay type: functional

Structure (SMILES) | IC50 [1] | MIC (Staphylococcus aureus [2]) | IC50 [3] | IC50 [4] | MIC (Escherichia coli [5]) | IC50 (80S Ribosome) | IC50 [6] | IC50 (Bacterial 70S ribosome) | IC50 [7] | MIC (Staphylococcus aureus [8]) | IC50 (Ribosome) | MIC (Escherichia coli [9]) | MIC (Staphylococcus aureus [10]) | MIC (Escherichia coli [11]) | MIC (Staphylococcus aureus [12]) | MIC (Escherichia coli [13])
NC[C@@H]1O[C@H](O[C@H]2[C@@H](O)[C@H](O[C@@H]3[C@@H](O)[C@H](N)C[C@H](N)[C@H]3O[C@H]3O[C@H](CO)[C@@H](OCO[C@H]4O[C@H](CO)[C@@H](O)[C@H](O)[C@H]4O)[C@H](O)[C@H]3N)O[C@@H]2CO)[C@H](N)[C@@H](O)[C@@H]1O | 17.16 µg/mL | 64 µg/mL (≈ 79.2 µM) | 200.3 µg/mL | 130.61 µg/mL | 64 µg/mL (≈ 79.2 µM) | 29800 nM | 96.03 µg/mL | 384 nM | 33.45 µg/mL | ≥ 128 µg/mL | 43.14 µg/mL | ≥ 128 µg/mL | 64 µg/mL (≈ 79.2 µM) | ≥ 128 µg/mL | 128 µg/mL (≈ 158 µM) | ≥ 128 µg/mL
NC[C@@H]1O[C@H](O[C@H]2[C@@H](O)[C@H](O[C@@H]3[C@@H](O)[C@H](N)C[C@H](N)[C@H]3O[C@H]3O[C@H](CO)[C@@H](O[C@H]4O[C@H](CO)[C@@H](N)[C@H](O)[C@H]4O)[C@H](O)[C@H]3N)O[C@@H]2CO)[C@H](N)[C@@H](O)[C@@H]1O | 7.06 µg/mL | 4 µg/mL (≈ 5.15 µM) | 32.79 µg/mL | 18.95 µg/mL | 2 µg/mL (≈ 2.57 µM) | 438 nM | 3.62 µg/mL | 154 nM | 6.07 µg/mL | 8 µg/mL (≈ 10.3 µM) | 19.59 µg/mL | 32 µg/mL (≈ 41.2 µM) | 4 µg/mL (≈ 5.15 µM) | 32 µg/mL (≈ 41.2 µM) | 8 µg/mL (≈ 10.3 µM) | 16 µg/mL (≈ 20.6 µM)
NC[C@@H]1O[C@H](O[C@H]2[C@@H](O)[C@H](O[C@@H]3[C@@H](O)[C@H](N)C[C@H](N)[C@H]3O[C@H]3O[C@H](CO)[C@@H](O[C@@H]4O[C@H](CO)[C@@H](O)[C@H](O)[C@H]4O)[C@H](O)[C@H]3N)O[C@@H]2CO)[C@H](N)[C@@H](O)[C@@H]1O | 9.32 µg/mL | 128 µg/mL (≈ 165 µM) | 294.83 µg/mL | 117.53 µg/mL | 32 µg/mL (≈ 41.1 µM) | 76000 nM | 83.64 µg/mL | 476 nM | 15.5 µg/mL | ≥ 128 µg/mL | 60.75 µg/mL | > 128 µg/mL | 128 µg/mL (≈ 165 µM) | > 128 µg/mL | > 128 µg/mL | > 128 µg/mL
NC[C@@H]1O[C@H](O[C@H]2[C@@H](O)[C@H](O[C@@H]3[C@@H](O)[C@H](N)C[C@H](N)[C@H]3O[C@H]3O[C@H](CO)[C@@H](O[C@H]4O[C@H](CO)[C@H](O)[C@H](O)[C@H]4O)[C@H](O)[C@H]3N)O[C@@H]2CO)[C@H](N)[C@@H](O)[C@@H]1O | 12.01 µg/mL | 64 µg/mL (≈ 82.3 µM) | 118.67 µg/mL | 35.63 µg/mL | 32 µg/mL (≈ 41.1 µM) | 2870 nM | 14.95 µg/mL | 707 nM | 18.68 µg/mL | 128 µg/mL (≈ 165 µM) | 23.75 µg/mL | > 128 µg/mL | 64 µg/mL (≈ 82.3 µM) | > 128 µg/mL | 64 µg/mL (≈ 82.3 µM) | > 128 µg/mL
NC[C@@H]1O[C@H](O[C@H]2[C@@H](O)[C@H](O[C@@H]3[C@@H](O)[C@H](N)C[C@H](N)[C@H]3O[C@H]3O[C@H](CO)[C@@H](O[C@H]4O[C@H](CO)[C@@H](O)[C@H](O)[C@@H]4O)[C@H](O)[C@H]3N)O[C@@H]2CO)[C@H](N)[C@@H](O)[C@@H]1O | 5.1 µg/mL | 64 µg/mL (≈ 82.3 µM) | 81.32 µg/mL | 51.72 µg/mL | 16 µg/mL (≈ 20.6 µM) | 2820 nM | 18.05 µg/mL | 373 nM | 8.79 µg/mL | ≥ 128 µg/mL | 36.82 µg/mL | > 128 µg/mL | 32 µg/mL (≈ 41.1 µM) | > 128 µg/mL | > 128 µg/mL | ≥ 128 µg/mL
NC[C@@H]1O[C@H](O[C@H]2[C@@H](O)[C@H](O[C@@H]3[C@@H](O)[C@H](N)C[C@H](N)[C@H]3O[C@H]3O[C@H](CO)[C@@H](O[C@H]4O[C@H](CO)[C@@H](O)[C@H](O)[C@H]4O)[C@H](O)[C@H]3N)O[C@@H]2CO)[C@H](N)[C@@H](O)[C@@H]1O | 21.84 µg/mL | 32 µg/mL (≈ 41.1 µM) | 109.01 µg/mL | 46.26 µg/mL | 16 µg/mL (≈ 20.6 µM) | 2390 nM | 13.98 µg/mL | 411 nM | 27.08 µg/mL | 32 µg/mL (≈ 41.1 µM) | 30.64 µg/mL | 128 µg/mL (≈ 165 µM) | 16 µg/mL (≈ 20.6 µM) | 128 µg/mL (≈ 165 µM) | 32 µg/mL (≈ 41.1 µM) | 128 µg/mL (≈ 165 µM)
NC[C@@H]1O[C@H](O[C@H]2[C@@H](O)[C@H](O[C@@H]3[C@@H](O)[C@H](N)C[C@H](N)[C@H]3O[C@H]3O[C@H](CO)[C@@H](O[C@@H]4O[C@H](CO)[C@@H](O)[C@H](O)[C@@H]4O)[C@H](O)[C@H]3N)O[C@@H]2CO)[C@H](N)[C@@H](O)[C@@H]1O | 27.91 µg/mL | ≥ 128 µg/mL | 297.39 µg/mL | 90.35 µg/mL | 64 µg/mL (≈ 82.3 µM) | 70200 nM | 85.7 µg/mL | 591 nM | 51.48 µg/mL | ≥ 128 µg/mL | 47.64 µg/mL | > 128 µg/mL | ≥ 128 µg/mL | > 128 µg/mL | ≥ 128 µg/mL | > 128 µg/mL
NC[C@@H]1O[C@H](O[C@H]2[C@@H](O)[C@H](O[C@@H]3[C@@H](O)[C@H](N)C[C@H](N)[C@H]3O[C@H]3O[C@H](CO)[C@@H](OCCCc4ccccc4)[C@H](O)[C@H]3N)O[C@@H]2CO)[C@H](N)[C@@H](O)[C@@H]1O | 14.52 µg/mL | 2 µg/mL (≈ 2.73 µM) | 210.73 µg/mL | 268.57 µg/mL | 8 µg/mL (≈ 10.9 µM) | 67900 nM | 105.68 µg/mL | 273 nM | 51.26 µg/mL | 8 µg/mL (≈ 10.9 µM) | – | 16 µg/mL (≈ 21.8 µM) | 4 µg/mL (≈ 5.45 µM) | 16 µg/mL (≈ 21.8 µM) | 4 µg/mL (≈ 5.45 µM) | 8 µg/mL (≈ 10.9 µM)
NC[C@@H]1O[C@H](O[C@H]2[C@@H](O)[C@H](O[C@@H]3[C@@H](O)[C@H](N)C[C@H](N)[C@H]3O[C@H]3O[C@@H]4COC(CCc5ccccc5)O[C@H]4[C@H](O)[C@H]3N)O[C@@H]2CO)[C@H](N)[C@@H](O)[C@@H]1O (some centres not stated) | 3.81 µg/mL | 4 µg/mL (≈ 5.47 µM) | 124.07 µg/mL | 183.86 µg/mL | 16 µg/mL (≈ 21.9 µM) | 452000 nM | 126.88 µg/mL | 137 nM | 43.01 µg/mL | 8 µg/mL (≈ 10.9 µM) | – | 32 µg/mL (≈ 43.7 µM) | 16 µg/mL (≈ 21.9 µM) | 32 µg/mL (≈ 43.7 µM) | 4 µg/mL (≈ 5.47 µM) | 32 µg/mL (≈ 43.7 µM)
